{"source": "patent US20200030388A1", "about": "“COMPOSITIONS FOR MODIFYING GUT MICROBIOTA” (priority 2017, published 2020)", "key": {"[1]": {"tested_on": "Mouse 3T3-L1 pre-adipocytes", "test": "Adipogenesis inhibition in 3T3-L1 cells, Oil red O staining", "format": "cell-based", "conditions": "3T3-L1 adipocytes, read-out: inhibition of lipid accumulation", "protocol": "Garcinol (20%) stock of 10 mg/ml was prepared in DMSO and filtered through 0.2 micron syringe filter. Stock was diluted 1000 times in DMEM to get 10 μg/ml final concentration and serially diluted. Insulin (Hi Media) was bought as a solution at a concentration of 20 mg/ml. This was diluted to 1 μg/ml in DMEM. IBMX-(Sigma)—Stock of 5 mM was prepared in DMEM, and diluted 10 times to be used at a final concentration of 0.5 mM. Dexamethasone (Sigma)—A stock of […] was prepared in DMEM and diluted 40 times to get a final concentration of 0.25 μM\nMouse 3T3-L1 pre-adipocytes were cultured in DMEM containing 25 mM glucose with 10% heat-inactivated fetal calf serum with antibiotics at 37° C. and 5% CO2. When the cells were 70-80% confluent, they were trypsinized, washed and seeded in 6 well plates at a density of 2×10^6 cells per well. Cells were induced to differentiate 2 d after reaching confluence (day 0), by supplementing DMEM media containing 10% Fetal Bovine Serum (FBS) along with 1 μg/mL insulin, 0.25 μM dexamethasone, 0.5 mM 1-methyl-3-isobutyl-xanthine (IBMX) and different concentrations of Garcinol (20%). From day 3 until day 7, cells were maintained in progression media supplemented with 1 μg/mL insulin and different concentrations of Garcinol (20%). […] Quantification for amount of triglycerides accumulated in adipocytes was done by Oil red O staining."}, "[2]": {"tested_on": "High Fat Diet Induced Obesity in C57 Mice", "test": "High fat diet induced obesity in C57 mice, 16 weeks (Example 1)", "format": "in vivo, mouse", "conditions": "for Change in weight / Final weight / Kidney weight / Pancreas Weight / Spleen Weight / Mesenteric Fat / Peri-gonadal Fat / Retroperitoneal Fat: HFD; for Change in weight / Final weight / Mesenteric Fat / Peri-gonadal Fat / Retroperitoneal Fat: 120 days", "protocol": "C57/BL6 mice, 6-8 weeks of age and 8 animals/Group (4 Male and 4 Female) were used for the study. Animals were housed under standard laboratory conditions, air-conditioned with adequate fresh air supply (12-15 Air changes per hour), room temperature 20.2-23.5° C. and relative humidity 58-64% with 12 hours fluorescent light and 12 hours dark cycle. The temperature and relative humidity was recorded once daily.\nThe animals were fed with Normal diet (9 kcal/day) and High fat diet (50 kcal/day) throughout the acclimatization and experimental period.\nThe design of the study groups is depicted in table 2.\nBody weight of the animals was recorded in all the days of experimental period. At the end of the experimental period, the animals were sacrificed by cervical dislocation. Blood was collected and Serum was separated by centrifugation and used for the analysis of biochemical parameters. The organs such as Liver Kidney, Spleen and Pancreas and Fat Tissues (Retroperitoneal, Peri-gonadal and Mesenteric) were dissected out and washed in phosphate buffered saline.\nThe following parameters were measured in the above groups: • Measurement of Body weight • Determination of Organ Weight • Estimation of Cholesterol (Zak et al., ([…]) A new method for the determination of serum cholesterol. J Clin Endocrinol Metab., 94(7), 2215-2220) • Estimation of Triglycerides (Foster L. B and Dunn R. T. (1973) Stable reagents for determination of serum triglycerides by a colorimetric Hantzsch condensation method. Clin Chem. 196, 338-340). • Estimation of HDL Cholesterol (Burstein et al., (1970). Determination of HDL cholesterol. J. lipid Res., 11, 583). • Determination of LDL and VLDL (Friedewald et al., (1972) Estimation of the concentration of Low Density Lipoprotein cholesterol in plasma without use of preparative centrifuge. J. Clin Chem.; 18:499)."}, "[3]": {"tested_on": "HFD-Induced Obese Mice (C57BL/6)", "test": "GAR, FOR, LMIX, HMIX in HFD-induced obese mice, 12 weeks (Example 4)", "experimental": "Four-week-old, male C57BL/6 mice were purchased from the BioLASCO Experimental Animal Center (Taiwan Co., Ltd., Taipei, Taiwan) and housed in a controlled atmosphere (25±1° C. at 50% relative humidity) with a 12 h light/12 h dark cycle. After 1 week of acclimation, animals were randomly distributed into 6 groups as follows: normal diet (ND, 15% energy from fat), high-fat diet (HFD, 50% energy from lard-based fat), and HFD supplemented with 0.01% garcinol (GAR group), 0.025% Forskolin (FOR group), 0.005% GAR+0.025% FOR (LMIX group), and 0.01% Gar+0.025% For (HMIX group) for 12 weeks. […] Animals had free access to food and water. Food consumption was monitored daily and the body weight was recorded weekly. At the end of the experiments, all animals were sacrificed by CO2 asphyxiation. Blood samples were collected from the heart for biochemical analysis. The liver, spleen, kidney, fat pads (perigonadal, retroperitoneal, and mesenteric fat), and fresh fecal pellets were immediately removed and stored at −80° C. until further analysis.\nLiver and the perigonadal adipose tissue were dissected and fixed in 10% buffered formalin for at least 24 h, dehydrated with a sequence of ethanol solutions, and processed for embedding in paraffin. Sections of 4 μm in thickness were cut, deparaffinized, rehydrated, stained with hematoxylin and eosin (H&E), and subjected to photo microscopic observation. Adipocyte size was measured at 100× magnification and determined by Image J software (U. S. National Institutes of Health, Bethesda, Md., USA)."}}, "note": "“And” between values parts separate entries of the source, which are not always exact repeats. Equal values may be shown once. Marks after values point to notes of the source that are not given here."}
{"smiles": "C=C(C)[C@@H](CC=C(C)C)C[C@@]12C[C@@H](CC=C(C)C)C(C)(C)[C@@](CC=C(C)C)(C(=O)C(C(=O)c3ccc(O)c(O)c3)=C1O)C2=O", "note": "[garcinol]", "values": [{"measurement": "inhibition at 5 µg/mL", "setting": "[1]; 5 μg/ml", "value": 47.8, "unit": "%"}, {"measurement": "inhibition at 10 µg/mL", "setting": "[1]; 10 μg/ml", "value": 47.2, "unit": "%"}, {"measurement": "Change in weight", "setting": "[2]; G5: garcinol 5 mg/kgbw", "value": "10.03 ± 2.25", "unit": "g"}, {"measurement": "Final weight", "setting": "[2]; G5: garcinol 5 mg/kgbw", "value": "29.33 ± 1.47", "unit": "g"}, {"measurement": "Change in weight", "setting": "[2]; G10: garcinol 10 mg/kgbw", "value": "10.25 ± 1.39", "unit": "g"}, {"measurement": "Final weight", "setting": "[2]; G10: garcinol 10 mg/kgbw", "value": "28.25 ± 1.39", "unit": "g"}, {"measurement": "Change in weight", "setting": "[2]; G20: garcinol 20 mg/kgbw", "value": "7.62 ± 2.18", "unit": "g"}, {"measurement": "Final weight", "setting": "[2]; G20: garcinol 20 mg/kgbw", "value": "27.37 ± 1.88", "unit": "g"}, {"measurement": "Change in weight", "setting": "[2]; G40: garcinol 40 mg/kgbw", "value": "6.28 ± 1.03", "unit": "g"}, {"measurement": "Final weight", "setting": "[2]; G40: garcinol 40 mg/kgbw", "value": "26.00 ± 1.33", "unit": "g"}, {"measurement": "Kidney weight", "setting": "[2]; Group III: garcinol 5 mg/kgbw", "value": "0.49 ± 0.03", "unit": "g wet tissue"}, {"measurement": "Pancreas Weight", "setting": "[2]; Group III: garcinol 5 mg/kgbw", "value": "0.23 ± 0.01", "unit": "g wet tissue"}, {"measurement": "Spleen Weight", "setting": "[2]; Group III: garcinol 5 mg/kgbw", "value": "0.25 ± 0.02", "unit": "g wet tissue"}, {"measurement": "Mesenteric Fat", "setting": "[2]; Group III: garcinol 5 mg/kgbw", "value": "0.63 ± 0.07", "unit": "g wet tissue"}, {"measurement": "Peri-gonadal Fat", "setting": "[2]; Group III: garcinol 5 mg/kgbw", "value": "1.33 ± 0.32", "unit": "g wet tissue"}, {"measurement": "Retroperitoneal Fat", "setting": "[2]; Group III: garcinol 5 mg/kgbw", "value": "0.45 ± 0.06", "unit": "g wet tissue"}, {"measurement": "Kidney weight", "setting": "[2]; Group IV: garcinol 10 mg/kgbw", "value": "0.42 ± 0.03", "unit": "g wet tissue"}, {"measurement": "Pancreas Weight", "setting": "[2]; Group IV: garcinol 10 mg/kgbw", "value": "0.17 ± 0.01", "unit": "g wet tissue"}, {"measurement": "Spleen Weight", "setting": "[2]; Group IV: garcinol 10 mg/kgbw", "value": "0.20 ± 0.01", "unit": "g wet tissue"}, {"measurement": "Mesenteric Fat", "setting": "[2]; Group IV: garcinol 10 mg/kgbw", "value": "0.56 ± 0.05", "unit": "g wet tissue"}, {"measurement": "Peri-gonadal Fat", "setting": "[2]; Group IV: garcinol 10 mg/kgbw", "value": "1.17 ± 0.22", "unit": "g wet tissue"}, {"measurement": "Retroperitoneal Fat", "setting": "[2]; Group IV: garcinol 10 mg/kgbw", "value": "0.43 ± 0.05", "unit": "g wet tissue"}, {"measurement": "Kidney weight", "setting": "[2]; Group V: garcinol 20 mg/kgbw", "value": "0.45 ± 0.06", "unit": "g wet tissue"}, {"measurement": "Pancreas Weight", "setting": "[2]; Group V: garcinol 20 mg/kgbw", "value": "0.21 ± 0.02", "unit": "g wet tissue"}, {"measurement": "Spleen Weight", "setting": "[2]; Group V: garcinol 20 mg/kgbw", "value": "0.22 ± 0.03", "unit": "g wet tissue"}, {"measurement": "Mesenteric Fat", "setting": "[2]; Group V: garcinol 20 mg/kgbw", "value": "0.601 ± 0.08", "unit": "g wet tissue"}, {"measurement": "Peri-gonadal Fat", "setting": "[2]; Group V: garcinol 20 mg/kgbw", "value": "1.35 ± 0.21", "unit": "g wet tissue"}, {"measurement": "Retroperitoneal Fat", "setting": "[2]; Group V: garcinol 20 mg/kgbw", "value": "0.46 ± 0.06", "unit": "g wet tissue"}, {"measurement": "Kidney weight", "setting": "[2]; Group VI: garcinol 40 mg/kgbw", "value": "0.42 ± 0.04", "unit": "g wet tissue"}, {"measurement": "Pancreas Weight", "setting": "[2]; Group VI: garcinol 40 mg/kgbw", "value": "0.22 ± 0.02", "unit": "g wet tissue"}, {"measurement": "Spleen Weight", "setting": "[2]; Group VI: garcinol 40 mg/kgbw", "value": "0.23 ± 0.02", "unit": "g wet tissue"}, {"measurement": "Mesenteric Fat", "setting": "[2]; Group VI: garcinol 40 mg/kgbw", "value": "0.59 ± 0.05", "unit": "g wet tissue"}, {"measurement": "Peri-gonadal Fat", "setting": "[2]; Group VI: garcinol 40 mg/kgbw", "value": "1.41 ± 0.14", "unit": "g wet tissue"}, {"measurement": "Retroperitoneal Fat", "setting": "[2]; Group VI: garcinol 40 mg/kgbw", "value": "0.46 ± 0.04", "unit": "g wet tissue"}, {"measurement": "weight of the organs (adverse effects)", "setting": "[2]; kidney, spleen, pancreas, Table 5", "value": "did not adversely affect"}, {"measurement": "Weight gain", "setting": "[3]; 0.01% GAR, 0.025% FOR, LMIX, HMIX", "value": "12.7 ± 2.0^b g"}, {"measurement": "Final weight", "setting": "[3]; 0.01% GAR, 0.025% FOR, LMIX, HMIX, listed as GAR", "value": "34.4 g and 34.4 ± 2.6^b g"}, {"measurement": "Kidney", "setting": "[3]; organ weight", "value": "0.4 ± 0.03^a g"}, {"measurement": "Liver", "setting": "[3]; organ weight", "value": "1.6 ± 0.2^b g"}, {"measurement": "Spleen", "setting": "[3]; organ weight", "value": "0.06 ± 0.01^a g"}]}
